Measurements: patent US20220306989A1, “CELL THERAPY METHODS” (Universität Basel, priority 2019, published 2022)
Numbered stars: 1 amine (or outer) side, 2 acyl side, 3 side chain; on linkers, the order of the positions; unused ones are H or OH. Bridge positions count the residues as written; N and C are the ends. Square brackets hold non-standard residues; d marks the D form. Peptide text beside a SMILES is read from it. I, II: the chains in the order shown. Actinocin(9to1) = Cc1c2oc3c(C)ccc(C(=O)[*:1])c3nc-2c(C(=O)[*:2])c(N)c1=O; NMeV = CN[C@H](C(=O)O)C(C)C; Sar = CNCC(=O)O

How the values were obtained:
NV and CE NK cells [1] = assay: Transferrin uptake assay (Tf-488); format: cell-based, human; conditions: IL-12/IL-18 + 2-DG treated NK cells
Description: (§1) Blood samples were obtained from healthy donors after written informed consent. Peripheral blood mononuclear cells were isolated by standard density-gradient centrifugation protocols (Lymphoprep; Fresenius Kabi). NK cells were negatively selected using EasySep negative NK cell isolation kit (Stemcell). Human NK cells were maintained in RPMI-1640 medium (Invitrogen) supplemented with 10% heat-inactivated human AB serum, 50 U/ml penicillin (Invitrogen) and 50 μg/ml streptomycin (Invitrogen) (R10AB). To generate CE NK cells, isolated NK cells were primed in R10AB containing IL-12 (10 ng/ml, R&D systems), IL-15 (1 ng/ml, PeproTech) and IL-18 (50 ng/ml, R&D systems) over-night. The next day cells were washed twice with PBS and maintained in R10AB containing IL-15 (1 ng/ml) until stimulation. Every 2-3 days 50% of the medium was replaced with fresh IL-IS (1 ng/ml). After 7 days cells were stimulated in R10AB containing IL-12 (10 ng/ml), IL-15 (1 ng/ml) and IL-18 (50 ng/ml) or with K562 leukemia targets (effector: target ratio, 5:1) for 6 hours. […]
NK cells were seeded in U-bottom 96-well plates (2×10^5 cells/well). […] Cells were resuspended in FACS buffer and analyzed by flow cytometry. […] Data were analyzed with Flowjo®_V10.5 (Tree Star, USA).

NV and CE NK cells [2] = assay: Quantitative real-time PCR of IFNG and TFRC mRNA in NK cells; format: cell-based, human
Description: as §1, with “ng/ml).” for “ng/ml). After 7 days cells were stimulated in R10AB containing IL-12 (10 ng/ml), IL-15 (1 ng/ml) and IL-18 (50 ng/ml) or with K562 leukemia targets (effector: target ratio, 5:1) for 6 hours.”
RNA was isolated from NK cells using Trizol (Thermo Fisher Scientific) and chloroform (Sigma-Aldrich) according to manufacturer's protocol, then purified with RNeasy RNA purification mini kit (QIAGEN, Germany). RNA concentration was determined using the NanoDrop 2000C (Thermo Fisher Scientific). […] Quantitative PCR for IFNG, TFRC and 18S mRNA was done in triplicate using commercially designed primers from Life Technologies (Hs00989291_m1, Hs00951083_m1, Hs03003631_g1). […]

NV and CE NK cells [3] = assay: IFN-γ measurement in human NK cells (bead-based immunoassay of supernatants); format: cell-based; conditions: IL-12/IL-18 stimulation 6 hours, 2-DG 10 mM pre-incubated 30 min
Description: as §1
NK cells were seeded in U-bottom 96 well plates (2×10^5 cells/well) using R10AB. […] Cell supernatants were harvested after stimulation and IFN-γ was measured using a human Th1 cytokine bead-based immunoassay (Legendplex, Biolegend) according to manufacturer's protocol.

NV and CE NK cells [4] = assay: Flow cytometry of surface CD71 / CD69 on human NK cells; format: cell-based
Description: as §1
For surface staining NK cells were stained for 30 min at 4° C. with saturating concentrations of antibodies. […] Data were analyzed with Flowjo®_V10.5 (Tree Star, USA).

NV and CE NK cells [5] = format: cell-based
Description: (§2) Blood samples were obtained from healthy donors after written informed consent. Peripheral blood mononuclear cells were isolated by standard density-gradient centrifugation protocols (Lymphoprep; Fresenius Kabi). NK cells were negatively selected using EasySep negative NK cell isolation kit (Stemcell). Human NK cells were maintained in RPMI-1640 medium (Invitrogen) supplemented with 10% heat-inactivated human AB serum, 50 U/ml penicillin (Invitrogen) and 50 μg/ml streptomycin (Invitrogen) (R10AB). To generate CE NK cells, isolated NK cells were primed in R10AB containing IL-12 (10 ng/ml, R&D systems), IL-15 (1 ng/ml, PeproTech) and IL-18 (50 ng/ml, R&D systems) over-night. The next day cells were washed twice with PBS and maintained in R10AB containing IL-15 (1 ng/ml) until stimulation. Every 2-3 days 50% of the medium was replaced with fresh IL-IS (1 ng/ml). After 7 days cells were stimulated in R10AB containing IL-12 (10 ng/ml), IL-15 (1 ng/ml) and IL-18 (50 ng/ml) or with K562 leukemia targets (effector: target ratio, 5:1) for 6 hours. When indicated, cells were pre-incubated with 2-deoxy-D-glucose (10 mM, Sigma-Aldrich), Actinomycin D (1 and 10 μM, Sigma-Aldrich), Cycloheximide (10 and 100 μg/ml, Sigma-Aldrich), 2,2′-Bipyridyl (1, 10, 50 and 100 μM, Sigma-Aldrich) or 6-aminonicotinamide (50 μM, Sigma-Aldrich) for 30 min and then stimulated in R10AB containing IL-12 (10 ng/ml), IL-1S (1 ng/ml) and IL-18 (50 ng/ml) for 6 hours.
For cell proliferation assays, NK cells were loaded prior to activation with the cell-proliferation dye CFSE (1 μM, Molecular probes, USA) and seeded in 96-well plates. Cells were washed twice and maintained in R10AB with IL-15 (1 ng/ml), when indicated in the presence of inhibitors. A fixable live-dead cell stain (Fixable Viability Dye, eBioscience or Zombie Aqua, Biolegend) was used to exclude dead cells prior to sample acquisition. CFSE dilution was analyzed 65 hours post-stimulation by flow cytometry. Samples were acquired using a BD AccuriC6 or a CytoFLEX flow cytometer (Beckman Coulter). Data were analyzed with Flowjo®_V 10.5 (Tree Star, USA).

NV and CE NK cells [6] = assay: Immunoblot of total CD71, IRP1, IRP2 in human NK cells; format: cell-based; conditions: IL-12/IL-18 + ActD 1 and 10 μM or CHX 10 and 100 μg/ml
Description: as §2
Protein concentrations were determined by BCA protein assay kit (Thermo Fisher Scientific). Total cell lysates were separated using 4%-15% Mini Protean TGX Gel (Bio-Rad, Hercules Calif., USA), and transferred to nitrocellulose membranes using Trans-Blot Turbo Transfer (Bio-Rad, Hercules Calif., USA). […] Blots were stained with appropriate secondary antibodies and the odyssey imaging system (LICOR, Lincoln Nebr., USA) was used for visualization, and the ImageJ software (1.48v) for quantification.

With O=CC[C@@H](O)[C@H](O)[C@H](O)CO [2-DG, 2-deoxy-d-glucose] the “transferrin uptake (Tf-488)” value (NV and CE NK cells [1]) was “reduced transferrin uptake”, the “TFRC mRNA abundance” value (NV and CE NK cells [2]; IL-12/IL-18 + 2-DG) was “similarly reduced” and the “IFNG mRNA abundance” value (NV and CE NK cells [2]; IL-12/IL-18 stimulation 6 hours, 2-DG 10 mM pre-incubated 30 min) was “similarly reduced”. For the same compound, the IFN-γ secretion (NV and CE NK cells [3]) was “similarly reduced” and the “Cell surface expression of CD71” value (NV and CE NK cells [4]; IL-12/IL-18 + 2-DG, NV and CE NK cells) was “followed the same pattern”.

In the case of NC(=O)c1ccc(N)nc1 [6AN, 6-aminonicotinamide], the “expansion / proliferation of cytokine-stimulated NK cells (CFSE dilution)” value (NV and CE NK cells [5]; IL-12/IL-18 + 6AN 50 μM, NV and CE NK cells) is reported as “prevented expansion of cytokine-stimulated NK cells”.

In the case of Cc1c2oc3c(C)ccc(C(=O)N[C@@H]4C(=O)N[C@H](C(C)C)C(=O)N5CCC[C@H]5C(=O)N(C)CC(=O)N(C)[C@@H](C(C)C)C(=O)O[C@@H]4C)c3nc-2c(C(=O)N[C@@H]2C(=O)N[C@H](C(C)C)C(=O)N3CCC[C@H]3C(=O)N(C)CC(=O)N(C)[C@@H](C(C)C)C(=O)O[C@@H]2C)c(N)c1=O [Actinomcyin D, Actinomycin D] (I: T[dV]P[Sar][NMeV] / II: T[dV]P[Sar][NMeV]; ester I:1-I:C, II:1-II:C; linker I:N-II:N via Actinocin(9to1)), the “stimulation-induced upregulation of CD71 (total CD71, Western blot)” value (“stimulation-induced upregulation of CD71” for short) (NV and CE NK cells [6]) is reported as “entirely prevented stimulation-induced upregulation of CD71” and the “stimulation-induced upregulation of CD71” value (NV and CE NK cells [6]; listed as actinomycin) is reported as “prevented stimulation-induced upregulation of CD71”.

For c1ccc(-c2ccccn2)nc1 [BIP, 2,2′-bipyridyl], the cell viability (NV and CE NK cells [5]) was “minimal effects on cell viability”, the “NK cell proliferation (CFSE dilution)” value (NV and CE NK cells [5]; IL-12/IL-18 + BIP 1, 10 and 50 μM, NV and CE NK cells, 65 hours post-stimulation) was “inhibited NK cell proliferation in a dose-dependent manner” and the “NK cell activation as assessed by CD69 expression” value (NV and CE NK cells [4]; IL-12/IL-18 + BIP 100 μM) was “no effect on NK cell activation”.

With C[C@@H]1C[C@@H]([C@H](O)CC2CC(=O)NC(=O)C2)C(=O)[C@@H](C)C1 [cycloheximide] the “stimulation-induced upregulation of CD71” value (NV and CE NK cells [6]) was “entirely prevented stimulation-induced upregulation of CD71”.
